Measured values taken from patent US11850266B2, “Cardiomyocytes and compositions and methods for producing the same” (President and Fellows of Harvard College, priority 2019, dated 2023).

What was measured:
Format in all cases: cell-based, human
[1] = test system: mTORC1 (S6K) and mTORC2 (Akt); experiment: Western analysis of phosphorylation downstream of mTORC1 and mTORC2 in iPSC-derived cardiomyocytes
Protocol: Cells were lysed with lysis buffer (1% Triton X, 0.35% Na-deoxycholate, 1 mM EDTA, 1% protease inhibitor cocktail (Sigma), 1% phosphatase inhibitor cocktail 2 (Sigma), 1% phosphatase inhibitor cocktail 3 (Sigma), 1 mM phenylmethylsulfonyl fluoride (PMSF)) and total protein was measured with the Pierce BCA Protein Assay Kit. Samples with equal total protein quantities (prepared in Laemmli Sample Buffer (Bio-Rad)) were loaded into a Mini-Protean TGX Precast Gel (Bio-Rad) and electrophoresed for 1 hour at 100 V before transfer to a PVDF membrane using the Trans-Blot Turbo Transfer System (Bio-Rad). The Precision Plus Protein Dual Color Standards molecular weight ladder was used to estimate molecular weight of detected bands (Bio-Rad). Membranes were blocked with 5% milk or bovine serum albumin then incubated with the primary antibody (Table 2) overnight at 4 degrees C. followed by incubation with the horseradish peroxidase-conjugated secondary antibody (Table 2) for 1 hour at room temperature. The Amersham ECL Western Blotting Detection kit was used to detect the protein signal by chemiluminescence, and band densities were quantified using ImageJ software (NIH).

[2] = test system: iPSC-derived cardiomyocytes; experiment: qPCR mRNA expression in iPSC-derived cardiomyocytes
Protocol: To prepare for differentiation, iPSCs were plated at a density between 20,000 to 80,000 cells (depending on the cell line) per well of a 12-well plate at four days prior to onset of differentiation. Cells were differentiated according to the protocol previously described by Lian et al. with some modifications (FIG. 1A) (1). Basal media was changed from StemFlex to RPMI/B27 on day 0 of differentiation. The GSK3 inhibitor, CHIR99021 (6 μM), was added for 48 hours from day 0 to day 2 of differentiation when cells were approximately 70-80% confluent. The Wnt antagonist IWP4 (5 μM) was added from days 2 to 4 of differentiation. Insulin (10 μg/ml) was added to the media starting on day 7 of differentiation, and media was changed every 2-3 days. In general, higher purity (TNNT2+) cardiomyocytes were observed when beating initiated prior to day 10 of differentiation, therefore only batches with onset of beating between days 7-10 of differentiation were included in this study. Beating cardiomyocytes were treated with Torin1 (200 nM, unless otherwise noted) or vehicle (0.02% dimethylsulfoxide (DMSO)) beginning at ˜2 days after onset of beating for 7 days (media changed with fresh Torin1 or DMSO every 2-3 days), unless otherwise noted. After Torin1 treatment, media was switched back to RPMI/B27/insulin and maintained with media change every 2-3 days until endpoint assay. In a few assays, fatty acids were added in the form of chemically defined lipids (Gibco) diluted 1:1000 simultaneous with Torin1 treatment. In some other assays, fetal bovine serum (10% FBS) was added to cells after completion of Torin treatment for 2-4 days.
RNA was extracted from cells using RiboZol (VWR) followed by the E.Z.N.A. Total RNA I kit (Omega) then reverse transcribed to cDNA with the High Capacity cDNA Reverse Transcription kit (Thermo Fisher Scientific) according to the manufacturer's instructions. Quantitative PCR (qPCR) was performed using the iTaq Universal SYBR Green Supermix (Bio-Rad) and the primer pairs listed in Table 1 with a Bio-Rad CFX384 Real-Time thermal cycler. TATA-binding protein (TBP) was used as the housekeeping gene.

[3] = test system: iPSC-derived cardiomyocytes; experiment: Voltage (FluoVolt) analysis with Vala Kinetic Image Cytometer
Protocol: Following completion of Torin1 treatment, cardiomyocytes were dissociated as described above then replated at a density of 20,000-30,000 cells per well in a Geltrex-coated Greiner Cellstar black 96 well plate. FluoVolt dye (1:1000 from stock in the FluoVolt Membrane Potential Kit, Thermo) and Hoechst 33258 stain (20 μg/ml) in RPMI1640 (no phenol red) (supplemented with OxyFluor (Oxyrase, 1:100 dilution), 10 mM sodium lactate) were added to each well 15 minutes prior to assay. Cells were electrically stimulated with 15 V at a frequency of 0.5 pulses/sec and a pulse width of 5 msec for 5 pulses using the IC200 Kinetic Image Cytometer (Vala). Images were acquired at 20× and at a frame rate of 70 frames per second. Voltage analysis was performed using the CyteSeer image analysis software, which automatically recognizes Hoechst-stained nuclei, segments, and identifies each cell to quantify voltage data for each cell captured in the field of view (34). Cells were identified by Hoechst-stained nuclei, segmented into individual cells and automatically numbered by CyteSeer software (FIG. 4C). Within each cell, fluorescence intensity was recorded from within a circular region within each numbered, nucleated cell. […] Data from approximately 300-500 individual cells were included for analysis for each condition. Baseline fluorescence was used to normalize for variability in fluorescence intensity between individual cells. The peak rise time, CTD25 (25% duration of the calcium transient, or duration at 25% decline from maximum amplitude), CTD75 (75% duration of the calcium transient, or duration at 75% decline from maximum amplitude), T75-25 (time for voltage to decay from 75% to 25% of maximum), and downstroke velocity were quantified using the CyteSeer image analysis software.

[4] = test system: BJRiPS-derived cardiomyocytes; experiment: Example 3 preliminary qPCR of maturation genes in BJRiPS-derived cardiomyocytes
Protocol: The BJRiPS cell line was used to generate preliminary data. BJRiPS cells were differentiated into cardiomyocytes according to previously published protocols (6). After the onset of beating (around day 10), cardiomyocytes were treated with vehicle (DMSO) or different concentrations of rapamycin, Torin1, or Torin2 for different time periods. Beating rate was counted manually. Some cells were harvested after 5-7 days of treatment for flow cytometry analysis. Other cells were harvested after 7 days of treatment for qPCR.

[5] = Torin1 10-200 nM, 7 days, BJRiPS-CMs, FIG. 1E
[6] = Torin1 10, 50, 200 nM, days 11-18, FIG. 32

With `CCC(=O)N1CCN(c2ccc(-n3c(=O)ccc4cnc5ccc(-c6cnc7ccccc7c6)cc5c43)cc2C(F)(F)F)CC1` [Torin1] the “phosphorylation of AMP kinase (AMPK)” value ([1]; Torin1 200 nM, 0-48 h, BJRiPS-CMs, FIG. 17B) was “increased phosphorylation of AMP kinase (AMPK)”, the “phosphorylation of S6K and Akt” value ([1]; Torin1 200 nM, single treatment, 0-48 h, BJRiPS-CMs) was “acutely decreased phosphorylation of both S6K and Akt” and the “phosphorylation of ribosomal protein S6” value ([1]; Torin1 10, 50, 200 nM at days 25-29 after lactate enrichment, FIG. 28) was “decreased phosphorylation of S6”. For the same molecule, the “mRNA expression of TNNI3, CACNA1c and SERCA2a” value ([2]; 200 nM Torin1 about two days after onset of beating, BJRiPS, FIGS. 18B-18D) was “robust increase in mRNA expression”, the “fatty acid transport protein 6 (FATP6) mRNA” value ([2]; FIG. 3F) was “increase in mRNA expression” and the “HCN4 mRNA” value ([2]; FIG. 4A) was “non-significant trend of increased HCN4”. The “selected mitochondrial genes (qPCR) or proteins (western)” value ([2]; FIGS. 13A-13B) was “Significant changes in selected mitochondrial genes (FIG. 13A) or proteins (FIG. 13B) were not observed”, the “E2F4 mRNA” value ([2]; Torin1 200 nM from day 9, BJRiPS, FIG. 25B) was “increased mRNA expression of the inhibitory E2F member, E2F4” and the “RBL2 (p130) mRNA” value ([2]; Torin1 200 nM from day 9, FIG. 25C) was “increased mRNA expression of RBL2”. For the same molecule, the “MDM2 mRNA” value ([2]; Torin1 200 nM from day 9, FIG. 25D) was “decreased mRNA expression of the E2 ubiquitin-protein ligase, MDM2”, the “MYH6, MYH7, TNNT2 mRNA” value ([2]; Torin1 10, 50, 200 nM, 7 days, BJRiPS-CMs, FIG. 2A) was “trended toward increased expression” and the “PPARGC1a mRNA expression” value ([2]; Torin1 10, 50, 200 nM, 7 days, FIG. 3F) was “dose-dependent increase”. For the same molecule, the “cyclin C1 and E2F1 proliferative markers (qPCR)” value [2, 5] was “significant decrease”, the “expression of quiescence markers including p16 and p130 (qPCR)” value [2, 5] was “non-significant trends toward increased expression” and the “KCNJ2, CACNA1c, RYR2, ATP2A2 (SERCA2A), SCN5A mRNA” value ([2]; Torin1 10 or 200 nM, 7 days, FIG. 4A) was “significant dose-dependent increase”. The “mRNA expression of p21” value ([2]; discussion of Example 1) was “significantly decreased mRNA expression”, the “TNNI3 mRNA expression” value ([2]; dose-dependent, Torin1 10, 50, 200 nM, 7 days, FIG. 2A) was “significantly increased” and the “E2F1 mRNA” value ([2]; immediately after Torin1 treatment, transient increase at ~5 days, FIG. 25A) was “trend toward decreased mRNA expression of the stimulatory E2F member, E2F1”. For the same molecule, the “TNNI3 expression by time of Torin1 initiation (qPCR)” value ([2]; initiation about 2 days after onset of beating, BJRiPS, FIG. 20A) was “trend toward higher TNNI3 expression”, the “CDKN1a (p21) mRNA” value ([2]; trend, Torin1 200 nM from day 9, FIG. 25E) was “decreased mRNA expression of the cyclin inhibitor CDKN1a (p21)” and the “CDK2 mRNA” value ([2]; trend, Torin1 200 nM from day 9, FIG. 25F) was “increased mRNA expression of the cyclin-dependent kinase, CDK2”. The action potential profile ([3]; FluoVolt, FIG. 4E) was “longer plateau phase and a sharper upstroke and downstroke”, the “action potential peak rise time” value ([3]; UCSD-CMs, FIG. 4F) was “significant decrease” and the downstroke velocity ([3]; UCSD-CMs, FIG. 4G) was “significant increase”. For the same molecule, the CTD25 ([3]; UCSD-CMs, FIG. 4H) was “no changes”, the CTD75 ([3]; UCSD-CMs, FIG. 4I) was “significant decrease” and the T75-25 time ([3]; UCSD-CMs, FIG. 4J) was “significant decrease”. For the same molecule, the “RNA expression of ryanodine receptor (RyR) and SCN5a” value ([4]; FIG. 32) was “trend toward increased RNA expression”, the “TNNI3 gene expression increase” value ([4]; Torin1 200 nM (highest dose tested), FIG. 30) was ~10 fold and the “RNA expression of TNNT2, TNNI3, MYH6, MYH7” value ([4]; Torin1 10, 50, 200 nM, days 11-18, FIG. 30) was “increased RNA expression of these proteins in a dose dependent manner”. The KCNJ2 expression [4, 6] was “trend toward a dose-dependent increase”, the “ion channel gene expression (KCNJ2, HCN4, SCN5a, RYR2, CACNA1c, SERCA2a)” value [4, 6] was “Ion channel gene expression increased” and the “NPPB (BNP) mRNA expression” value ([4]; Torin1 10, 50, 200 nM, days 11-18, FIG. 33) was “increased”. The “PGC1-alpha (PPARGC1a) mRNA expression” value ([4]; Torin1 10, 50, 200 nM, days 11-18, FIG. 35) was “increased expression”, the REST/NRSF expression ([4]; dose-dependent, Torin1 10, 50, 200 nM, FIG. 34) was “increases gene expression for REST” and the “RNA expression of markers of maturation including TNNI3 and KCNJ2” value ([4]; preliminary data, after differentiation) was “increased RNA expression”.
